Source: patent US12172983B2, “EGFR inhibitors” (Blueprint Medicines Corporation, priority 2019, dated 2024)
Where two headings read alike, the source gives them in different places.

Assays:
EGFR (L858R T790M C797S) = target: T1, EGFR (L858R T790M C797S) (Homo sapiens, UniProt P00533, C797S/L858R/T790M); assay: Biochemical EGFR inhibition assay (Caliper mobility shift), EGFR LRTMCS mutant; conditions: inhibitory activity against EGFR LRTMCS mutant; apparent IC50; read-out: Ext Enz LRTMCS
T1 construct: purchased SignalChem E10-122VG
How it was run: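 Each enzyme was allowed to phosphorylate 10–20% of its peptide at 25° C. before EDTA (35 mM) quench. Separated substrate and product peaks were measured by mobility shift, giving apparent IC50 values.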

[1] = system: phosphorylation of EGFR (Tyr1068) in NCI-H1975 cell line that harbors the EGFR L858R T790M mutations; assay: NCI-H1975 pEGFR AlphaLISA assay; format: cell-based; conditions: 4-5 hours incubation, read-out: Ext pEGFR H1975
How it was run: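 Phospho-EGFR Tyr1068 AlphaLISA readout: lysates taken from compound-treated H1975 cells (L858R T790M EGFR) after a 4-5 h exposure at 37 °C. Cells had adhered overnight beforehand. IC50 derived by plotting % pEGFR inhibition against log compound concentration.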

[2] = Homo sapiens, NCI-H1975, inhibition of phosphorylation of mutant EGFR in NCI-H1975 cells
[3] = inhibition of phosphorylation of mutant EGFR in NCI-H1975 cells

T1 sequence (P00533 25-1210 T790M/C797S/L858R): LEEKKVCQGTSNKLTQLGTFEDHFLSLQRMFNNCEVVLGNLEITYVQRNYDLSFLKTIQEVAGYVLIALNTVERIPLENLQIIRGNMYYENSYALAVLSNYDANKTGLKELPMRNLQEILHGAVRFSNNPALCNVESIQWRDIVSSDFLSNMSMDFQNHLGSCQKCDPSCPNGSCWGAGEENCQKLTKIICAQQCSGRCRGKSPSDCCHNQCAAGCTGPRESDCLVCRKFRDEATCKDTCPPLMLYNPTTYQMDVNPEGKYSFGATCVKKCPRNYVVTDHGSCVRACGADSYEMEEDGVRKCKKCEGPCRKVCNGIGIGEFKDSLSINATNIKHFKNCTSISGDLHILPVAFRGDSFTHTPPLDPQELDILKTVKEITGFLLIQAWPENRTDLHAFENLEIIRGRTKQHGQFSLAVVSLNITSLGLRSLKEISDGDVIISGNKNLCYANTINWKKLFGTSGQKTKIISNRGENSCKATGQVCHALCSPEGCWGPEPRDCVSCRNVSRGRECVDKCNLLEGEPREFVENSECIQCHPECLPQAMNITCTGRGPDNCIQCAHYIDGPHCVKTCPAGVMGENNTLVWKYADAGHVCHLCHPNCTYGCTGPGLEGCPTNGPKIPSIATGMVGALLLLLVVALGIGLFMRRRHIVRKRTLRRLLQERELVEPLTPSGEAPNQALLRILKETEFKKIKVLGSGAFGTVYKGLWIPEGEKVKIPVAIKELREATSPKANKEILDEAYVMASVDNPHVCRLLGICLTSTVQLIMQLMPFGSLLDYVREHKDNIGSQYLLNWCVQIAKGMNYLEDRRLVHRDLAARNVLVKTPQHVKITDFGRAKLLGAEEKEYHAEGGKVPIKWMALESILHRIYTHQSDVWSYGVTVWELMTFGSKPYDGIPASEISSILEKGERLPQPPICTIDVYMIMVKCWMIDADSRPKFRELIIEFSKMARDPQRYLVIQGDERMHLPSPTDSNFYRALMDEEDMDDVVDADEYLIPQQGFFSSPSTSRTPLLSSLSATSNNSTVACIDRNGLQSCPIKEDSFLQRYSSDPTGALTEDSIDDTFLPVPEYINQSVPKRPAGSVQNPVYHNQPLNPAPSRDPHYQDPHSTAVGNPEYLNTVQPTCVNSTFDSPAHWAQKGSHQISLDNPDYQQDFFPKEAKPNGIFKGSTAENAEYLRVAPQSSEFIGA

IC50 (EGFR (L858R T790M C797S)) [nM] | IC50 [1, 2] [nM] | IC50 [1, 3] [nM] | Structure (SMILES)
≤ 15 | 10.1 to 20 | – | CC(C)c1ccc(N2CC(CS(C)(=O)=O)C2)c2cnc(Nc3ccnc(N4CC[C@](C)(O)[C@H](F)C4)n3)cc12 (single isomer, unassigned) [Compound 57]
≤ 15 | 30.1 to 50 | – | CO[C@H]1CCN(c2nccc(Nc3cc4cccc(N5C[C@H](CS(C)(=O)=O)[C@H]5C)c4cn3)n2)C[C@H]1F [Compound 4, N-{2-[(3R,4S)-3-fluoro-4-methoxypiperidin-1-yl]pyrimidin-4-yl}-8-[(2R,3S)-3-(methanesulfonylmethyl)-2-methylazetidin-1-yl]isoquinolin-3-amine]
≤ 15 | ≤ 10 | – | CCS(=O)(=O)C[C@H]1CN(c2nnc(C(C)C)c3cc(Nc4ccnc(N5CC[C@@H](OC)[C@@H](F)C5)n4)ncc23)[C@@H]1C [Compound 206, N-{4-[(2R,3S)-3-[(ethanesulfonyl)methyl]-2-methylazetidin-1-yl]-1-(propan-2-yl)pyrido[3,4-d]pyridazin-7-yl}-2-[(3S,4R)-3-fluoro-4-methoxypiperidin-1-yl]pyrimidin-4-amine]
30.1 to 100 | 20.1 to 30 | – | CC(C)c1ccc(N2C[C@H](CS(C)(=O)=O)[C@H]2C)c2cnc(Nc3ccnc(N4CC[C@H](F)[C@H](O)C4)n3)cc12 (single isomer, unassigned) [Compound 268, (3R,4S)-4-fluoro-1-[4-({8-[(2R,3S)-3-(methanesulfonylmethyl)-2-methylazetidin-1-yl]-5-(propan-2-yl)isoquinolin-3-yl}amino)pyrimidin-2-yl]piperidin-3-ol or (3S,4R)-4-fluoro-1-[4-({8-[(2R,3S)-3-(methanesulfonylmethyl)-2-methylazetidin-1-yl]-5-(propan-2-yl)isoquinolin-3-yl}amino)pyrimidin-2-yl]piperidin-3-ol]
20.1 to 30 | – | 10.1 to 20 | CO[C@H]1CN(c2nccc(Nc3cc4c(C(C)C)ccc(N5C[C@H](CS(C)(=O)=O)[C@H]5C)c4cn3)n2)CC[C@@H]1O (single isomer, unassigned) [Compound 96, (3S,4S)-1-[4-({8-[(2R,3S)-3-(methanesulfonylmethyl)-2-methylazetidin-1-yl]-5-(propan-2-yl)isoquinolin-3-yl}amino)pyrimidin-2-yl]-3-methoxypiperidin-4-ol or (3R,4R)-1-[4-({8-[(2R,3S)-3-(methanesulfonylmethyl)-2-methylazetidin-1-yl]-5-(propan-2-yl)isoquinolin-3-yl}amino)pyrimidin-2-yl]-3-methoxypiperidin-4-ol]
20.1 to 30 | 10.1 to 20 | – | CC(C)c1ccc(N2C[C@H](CS(C)(=O)=O)[C@H]2C)c2cnc(Nc3ccnc(N4CC[C@](C)(O)C(F)(F)C4)n3)cc12 (single isomer, unassigned) [Compound 210, (4S)-3,3-difluoro-1-[4-({8-[(2R,3S)-3-(methanesulfonylmethyl)-2-methylazetidin-1-yl]-5-(propan-2-yl)isoquinolin-3-yl}amino)pyrimidin-2-yl]-4-methylpiperidin-4-ol or (4R)-3,3-difluoro-1-[4-({8-[(2R,3S)-3-(methanesulfonylmethyl)-2-methylazetidin-1-yl]-5-(propan-2-yl)isoquinolin-3-yl}amino)pyrimidin-2-yl]-4-methylpiperidin-4-ol]
≤ 15 | 10.1 to 20 | – | CC(C)c1ccc(N2CC(CS(C)(=O)=O)C2)c2cnc(Nc3ccnc(N4CCC5(CC4)COCCO5)n3)cc12 [Compound 167, N-(2-{1,4-dioxa-9-azaspiro[5,5]undecan-9-yl}pyrimidin-4-yl)-8-[3-(methanesulfonylmethyl)azetidin-1-yl]-5-(propan-2-yl)isoquinolin-3-amine]
20.1 to 30 | – | 10.1 to 20 | CN[C@H]1CCN(c2nccc(Nc3cc4c(C(C)C)ccc(N5C[C@H](CS(C)(=O)=O)[C@H]5C)c4cn3)n2)C[C@H]1F (single isomer, unassigned) [Compound 307, N-{2-[(3S,4R)-3-fluoro-4-(methylamino)piperidin-1-yl]pyrimidin-4-yl}-8-[(2R,3S)-3-(methanesulfonylmethyl)-2-methylazetidin-1-yl]-5-(propan-2-yl)isoquinolin-3-amine or N-{2-[(3R,4S)-3-fluoro-4-(methylamino)piperidin-1-yl]pyrimidin-4-yl}-8-[(2R,3S)-3-(methanesulfonylmethyl)-2-methylazetidin-1-yl]-5-(propan-2-yl)isoquinolin-3-amine]
≤ 15 | 20.1 to 30 | – | CO[C@]1(C)CN(c2nccc(Nc3cc4c(C(C)C)ccc(N5CC(CS(C)(=O)=O)C5)c4cn3)n2)CC[C@@H]1O (single isomer, unassigned) [Compound 94, (3R,4S)-1-[4-({8-[3-(methanesulfonylmethyl)azetidin-1-yl]-5-(propan-2-yl)isoquinolin-3-yl}amino)pyrimidin-2-yl]-3-methoxy-3-methylpiperidin-4-ol or (3S,4R)-1-[4-({8-[3-(methanesulfonylmethyl)azetidin-1-yl]-5-(propan-2-yl)isoquinolin-3-yl}amino)pyrimidin-2-yl]-3-methoxy-3-methylpiperidin-4-ol]
≤ 15 | 10.1 to 20 | – | CO[C@@H]1CCN(c2nccc(Nc3cc4c(F)ccc(N5C[C@H](CS(C)(=O)=O)[C@H]5C)c4cn3)n2)C[C@]1(C)F (single isomer, unassigned) [Compound 84]
≤ 15 | 10.1 to 20 | – | CC(C)c1ccc(N2CC(CS(C)(=O)=O)C2)c2cnc(Nc3ccnc(N4CC[C@@](F)([C@@H](C)O)C4)n3)cc12 (single isomer, unassigned) [Compound 59, (1R)-1-[(3S)-3-fluoro-1-[4-({8-[3-(methanesulfonylmethyl)azetidin-1-yl]-5-(propan-2-yl)isoquinolin-3-yl}amino)pyrimidin-2-yl]pyrrolidin-3-yl]ethan-1-ol or (1S)-1-[(3R)-3-fluoro-1-[4-({8-[3-(methanesulfonylmethyl)azetidin-1-yl]-5-(propan-2-yl)isoquinolin-3-yl}amino)pyrimidin-2-yl]pyrrolidin-3-yl]ethan-1-ol]
15.1 to 20 | 10.1 to 20 | – | [2H]C([2H])([2H])OC1CCN(c2nccc(Nc3cc4c(C(C)C)ccc(N5C[C@H](CS(C)(=O)=O)[C@H]5C)c4cn3)n2)CC1 [Compound 263, 8-[(2R,3S)-3-(methanesulfonylmethyl)-2-methylazetidin-1-yl]-N-{2-[4-(^2H3)methoxypiperidin-1-yl]pyrimidin-4-yl}-5-(propan-2-yl)isoquinolin-3-amine]
≤ 15 | – | 30.1 to 50 | CO[C@H]1CCN(c2nccc(Nc3cc4c(C(C)C)ccc(N5CC(CS(C)(=O)=O)C5)c4cn3)n2)C[C@@H]1O (single isomer, unassigned) [Compound 54, (3R,4R)-1-[4-({8-[3-(methanesulfonylmethyl)azetidin-1-yl]-5-(propan-2-yl)isoquinolin-3-yl}amino)pyrimidin-2-yl]-4-methoxypiperidin-3-ol or (3S,4S)-1-[4-({8-[3-(methanesulfonylmethyl)azetidin-1-yl]-5-(propan-2-yl)isoquinolin-3-yl}amino)pyrimidin-2-yl]-4-methoxypiperidin-3-ol]
15.1 to 20 | 30.1 to 50 | – | CCS(=O)(=O)CC1CN(c2ncc(C(C)C)c3cc(Nc4ccnc(N5CCN[C@@H](C(F)F)C5)n4)ncc23)C1 (single isomer, unassigned) [Compound 160, N-{2-[(3R)-3-(difluoromethyl)piperazin-1-yl]pyrimidin-4-yl}-8-{3-[(ethanesulfonyl)methyl]azetidin-1-yl}-5-(propan-2-yl)-2,7-naphthyridin-3-amine or N-{2-[(3S)-3-(difluoromethyl)piperazin-1-yl]pyrimidin-4-yl}-8-{3-[(ethanesulfonyl)methyl]azetidin-1-yl}-5-(propan-2-yl)-2,7-naphthyridin-3-amine]
≤ 15 | ≤ 10 | – | CC(C)c1ncc(N2C[C@H](CS(C)(=O)=O)[C@H]2C)c2cnc(Nc3ccnc(N4CC[C@@](C)(O)C(F)(F)C4)n3)cc12 (single isomer, unassigned) [Compound 214, (4R)-3,3-difluoro-1-[4-({8-[(2R,3S)-3-(methanesulfonylmethyl)-2-methylazetidin-1-yl]-5-(propan-2-yl)-2,6-naphthyridin-3-yl}amino)pyrimidin-2-yl]-4-methylpiperidin-4-ol or (4S)-3,3-difluoro-1-[4-({8-[(2R,3S)-3-(methanesulfonylmethyl)-2-methylazetidin-1-yl]-5-(propan-2-yl)-2,6-naphthyridin-3-yl}amino)pyrimidin-2-yl]-4-methylpiperidin-4-ol]
≤ 15 | 10.1 to 20 | – | CCc1cnc(N2CC(CS(C)(=O)=O)C2)c2cnc(Nc3ccnc(N4CC[C@@H](O)[C@@](C)(F)C4)n3)cc12 (single isomer, unassigned) [Compound 31]
≤ 15 | ≤ 10 | – | CNCCO[C@H]1CCN(c2nccc(Nc3cc4c(C(C)C)ccc(N5C[C@H](CS(C)(=O)=O)[C@H]5C)c4cn3)n2)C[C@H]1F [Compound 297, N-{2-[(3R,4S)-3-fluoro-4-[2-(methylamino)ethoxy]piperidin-1-yl]pyrimidin-4-yl}-8-[(2R,3S)-3-(methanesulfonylmethyl)-2-methylazetidin-1-yl]-5-(propan-2-yl)isoquinolin-3-amine]
